Results from patent publication US10865193B2, “Pyridone derivatives for the treatment of viral infections and further diseases” (JANSSEN SCIENCES IRELAND UNLIMITED COMPANY, priority 2013, dated 2020).

Assays:
Format in all cases: cell-based
[1] = molecular target: T1, human TLR7 (Homo sapiens, UniProt Q9NYK1); experiment: TLR7 cellular reporter assay (HEK293, NFκB-luc); details: HEK293 transiently transfected with TLR7 and NFκB-luc; 6 hours incubation; lowest effective concentration
T1 construct: expressed in transfected cells; host or cells: HEK293 (transient transfection)
T1 sequence (Q9NYK1 27-1049): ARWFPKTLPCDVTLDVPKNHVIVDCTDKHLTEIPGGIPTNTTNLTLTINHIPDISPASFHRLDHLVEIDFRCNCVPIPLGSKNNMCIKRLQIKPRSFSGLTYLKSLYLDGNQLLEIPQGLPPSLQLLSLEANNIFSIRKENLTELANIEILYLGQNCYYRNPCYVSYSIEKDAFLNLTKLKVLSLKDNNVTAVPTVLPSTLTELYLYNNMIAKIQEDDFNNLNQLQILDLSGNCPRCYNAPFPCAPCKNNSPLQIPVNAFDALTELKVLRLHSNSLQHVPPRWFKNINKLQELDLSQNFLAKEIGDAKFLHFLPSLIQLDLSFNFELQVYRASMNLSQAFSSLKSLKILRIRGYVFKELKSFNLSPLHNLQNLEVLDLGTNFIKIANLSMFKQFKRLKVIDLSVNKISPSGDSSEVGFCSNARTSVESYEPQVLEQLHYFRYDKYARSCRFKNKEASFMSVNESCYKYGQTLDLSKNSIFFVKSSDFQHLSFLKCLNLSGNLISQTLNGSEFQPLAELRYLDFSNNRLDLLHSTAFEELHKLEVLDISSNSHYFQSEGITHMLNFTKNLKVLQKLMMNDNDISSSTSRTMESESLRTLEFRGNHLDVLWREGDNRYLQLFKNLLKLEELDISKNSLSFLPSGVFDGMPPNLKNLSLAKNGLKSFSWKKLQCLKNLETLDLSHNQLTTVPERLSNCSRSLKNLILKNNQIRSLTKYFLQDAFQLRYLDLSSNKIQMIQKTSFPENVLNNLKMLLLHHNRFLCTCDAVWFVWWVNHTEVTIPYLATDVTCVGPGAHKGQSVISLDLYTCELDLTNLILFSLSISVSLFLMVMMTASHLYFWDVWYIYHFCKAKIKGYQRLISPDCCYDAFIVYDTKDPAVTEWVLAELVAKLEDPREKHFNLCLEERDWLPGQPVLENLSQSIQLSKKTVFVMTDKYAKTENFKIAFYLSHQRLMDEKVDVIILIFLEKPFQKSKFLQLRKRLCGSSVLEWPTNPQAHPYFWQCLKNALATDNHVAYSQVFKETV
Description: (§1) The ability of compounds to activate human TLR7 and/or TLR8 was assessed in a cellular reporter assay using HEK293 cells transiently transfected with a TLR7 or TLR8 expression vector and NFκB-luc reporter construct.
(§2) Briefly, HEK293 cells were grown in culture medium (DMEM supplemented with 10% FCS and 2 mM Glutamine). For transfection of cells in 15 cm dishes, cells were detached with Trypsin-EDTA, transfected with a mix of CMV-TLR7 or TLR8 plasmid (1700 ng), NFκB-luc plasmid (850 ng) and a transfection reagent and incubated for 48 h at 37° C. in a humidified 5% CO2 atmosphere. Transfected cells were then washed in PBS, detached with Trypsin-EDTA and resuspended in medium to a density of 1.25×10^5 cells/mL. Forty microliters of cells were then dispensed into each well in 384-well plates, where 200 nL of compound in 100% DMSO was already present. Following 6 hours incubation at 37° C., 5% CO2, the luciferase activity was determined by adding 15 μL of Steady Lite Plus substrate (Perkin Elmer) to each well and readout performed on a ViewLux ultraHTS microplate imager (Perkin Elmer). Dose response curves were generated from measurements performed in quadruplicates. Lowest effective concentrations (LEC) values, defined as the concentration that induces an effect which is at least two fold above the standard deviation of the assay, were determined for each compound.

[2] = molecular target: T2, human TLR8 (Homo sapiens, UniProt Q9NR97); experiment: TLR8 cellular reporter assay (HEK293, NFκB-luc); details: HEK293 transiently transfected with TLR8 and NFκB-luc; 6 hours incubation; lowest effective concentration
T2 construct: expressed in transfected cells; host or cells: HEK293 (transient transfection)
T2 sequence (Q9NR97 27-1041): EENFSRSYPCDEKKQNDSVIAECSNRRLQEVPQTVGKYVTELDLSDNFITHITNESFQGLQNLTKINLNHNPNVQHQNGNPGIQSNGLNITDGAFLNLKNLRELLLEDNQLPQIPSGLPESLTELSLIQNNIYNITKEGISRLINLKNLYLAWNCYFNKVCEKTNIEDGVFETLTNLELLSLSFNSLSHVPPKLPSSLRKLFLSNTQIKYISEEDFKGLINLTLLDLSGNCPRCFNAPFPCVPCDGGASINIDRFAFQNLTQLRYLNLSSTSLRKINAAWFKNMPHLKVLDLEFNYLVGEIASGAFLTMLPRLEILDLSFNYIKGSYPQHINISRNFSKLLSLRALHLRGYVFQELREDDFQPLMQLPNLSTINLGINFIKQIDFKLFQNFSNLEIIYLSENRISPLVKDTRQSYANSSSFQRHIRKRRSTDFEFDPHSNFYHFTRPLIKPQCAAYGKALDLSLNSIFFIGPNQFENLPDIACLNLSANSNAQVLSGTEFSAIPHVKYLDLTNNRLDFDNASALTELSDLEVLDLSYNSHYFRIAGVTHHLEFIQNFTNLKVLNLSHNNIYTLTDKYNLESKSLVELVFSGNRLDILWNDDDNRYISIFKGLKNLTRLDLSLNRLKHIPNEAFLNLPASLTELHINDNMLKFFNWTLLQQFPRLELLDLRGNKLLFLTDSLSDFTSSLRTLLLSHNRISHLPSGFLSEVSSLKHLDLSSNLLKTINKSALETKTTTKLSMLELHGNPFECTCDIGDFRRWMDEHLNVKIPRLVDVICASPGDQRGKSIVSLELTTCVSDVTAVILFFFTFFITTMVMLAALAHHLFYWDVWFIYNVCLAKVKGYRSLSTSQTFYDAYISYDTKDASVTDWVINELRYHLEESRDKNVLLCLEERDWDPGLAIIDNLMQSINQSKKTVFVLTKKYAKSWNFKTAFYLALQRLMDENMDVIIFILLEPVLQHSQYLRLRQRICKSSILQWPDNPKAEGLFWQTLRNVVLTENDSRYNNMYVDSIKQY
Description: as §1, §2

[3] = tested on: interferon-stimulated responsive elements (ISRE); experiment: Activation of ISRE promoter elements by conditioned media from PBMC (HEK-ISREluc); details: Homo sapiens; PBMC overnight incubation, supernatant on HEK-ISREluc cells 24 hours; lowest effective concentration; read-out: HEK-ISRE luc (LEC)
Description: The potential of compounds to induce IFN-I was also evaluated by measuring the activation of interferon-stimulated responsive elements (ISRE) by conditioned media from PBMC. The ISRE element of sequence GAAACTGAAACT (SEQ ID NO: 1) is highly responsive to the STAT1-STAT2-1RF9 transcription factor, activated upon binding of IFN-I to their receptor IFNAR (Clontech, PT3372-5W). The plasmid pISRE-Luc from Clontech (ref. 631913) contains 5 copies of this ISRE element, followed by the firefly luciferase ORF. A HEK293 cell line stably transfected with pISRE-Luc (HEK-ISREluc) was established to profile the conditioned PBMC cell culture media.
Briefly, PBMCs were prepared from buffy coats of at least two donors using a standard Ficoll centrifugation protocol. Isolated PBMCs were resuspended in RPMI medium supplemented with 10% human AB serum and 2×10^5 cells/well were dispensed into 384-well plates containing compounds (70 μL total volume). After overnight incubation, 10 μL of supernatant was transferred to 384-well plates containing 5×10^3 HEK-ISREluc cells/well in 30 μL (plated the day before). Following 24 hours of incubation, activation of the ISRE elements was measured by assaying luciferase activity using 40 μL/well Steady Lite Plus substrate (Perkin Elmer) and measured with ViewLux ultraHTS microplate imager (Perkin Elmer). The stimulating activity of each compound on the HEK-ISREluc cells was reported as LEC value, defined as the compound concentration applied to the PBMCs resulting in a luciferase activity at least two fold above the standard deviation of the assay. The LEC in turn indicates the degree of ISRE activation on transfer of a defined amount of PBMC culture medium. Recombinant interferon α-2a (Roferon-A) was used as a standard control compound.

Row | SMILES | Human TLR 7 (LEC) [1] [µM] | Human TLR 8 (LEC) [2] [µM] | minimal effective concentration [3] [µM]
1 | CCCCNc1nc(N)ncc1Cn1ccccc1=O [Compound 1] | 1.8 | 7.3 | 0.7
2 | CCCCNc1nc(N)ncc1Cn1c(C)cccc1=O [Compound 2] | 1.1 | 2.1 | 0.8
3 | CCCCNc1nc(N)ncc1Cn1cc(C)ccc1=O [Compound 3] | 0.8 | 10.3 | 0.3
4 | CCCCNc1nc(N)ncc1Cn1ccc(C)cc1=O [Compound 4] | 0.5 | 2.2 | 0.5
5 | CCCCNc1nc(N)ncc1Cn1c(=O)ccc2ccccc21 [Compound 5] | 0.9 | 2.7 | 0.04
6 | CCCCNc1nc(N)ncc1Cn1cccc(F)c1=O [Compound 6] | 1.2 | 6.9 | 0.5
7 | CCCCNc1nc(N)ncc1Cn1ccc(C(F)(F)F)cc1=O [Compound 7] | 0.5 | 6.8 | 0.5
8 | CCCCCNc1nc(N)ncc1Cn1ccccc1=O [Compound 8] | 1.5 | >25 | 0.6
9 | CCCCCCNc1nc(N)ncc1Cn1ccccc1=O [Compound 9] | 7.3 | >25 | 3
10 | CCCCC(C)Nc1nc(N)ncc1Cn1ccccc1=O (stereo not drawn) [Compound 10] | 1.0 | 16 | 0.3
11 | CCCC(C)Nc1nc(N)ncc1Cn1ccccc1=O (stereo not drawn) [Compound 11] | 1.3 | 14.6 | 0.3
